# Columns and labels:
# [1] = tested on: TRPV1; test: Cooling of RhTx- or capsaicin-induced channel activation; format: cell-based; settings: RhTx at 1 μM
# Method: (§1) As described in details in a previous report, macroscopic currents (in whole-cell, inside-out or outside-out configuration) as well as single-channel currents were recorded using a HEKA EPC10 amplifier with the PatchMaster software (HEKA). Both pipette solution and bath solution contained 130 mM NaCl, 3 mM HEPES and 0.2 mM EDTA (pH 7.2). All recordings were performed at room temperature unless otherwise stated. A holding potential of 0 mV was used from which a testing pulse to +80 mV was applied. Statistical difference was determined using the Student’s t-test, and indicated by ** when reaching the significance level P<0.001.
# [2] = tested on: mTRPV1 point mutants at D602, Y632, T634 and L461; test: Calcium imaging of mTRPV1 point mutants; format: cell-based, mouse; settings: glycine or alanine mutation; 10 μM RhTx, 10 μM capsaicin
# Source text: TRPV1 and TRPV3 chimeras used in this study were generated by the overlapping extension method[54] and confirmed by DNA sequencing, as described previously. Briefly, to generate V1/3S, the primer pairs (5′-[…]-3′and 5′-[…]-3′) were used. To generate other TRPV1/TRPV3 chimeras, the enzyme cutting sites by MluI were made by the primer pair (5′-[…]-3′ and 5′-[…]-3′) for TRPV1 and the primer pair (5′-[…]-3′ and 5′-[…]-3′) for TRPV3. The enzyme cutting sites by PvuI were made by the primer pair (5′-[…]-3′ and 5′-[…]-3′) for TRPV1 and the primer pair (5′-[…]-3′ and 5′-[…]-3′) for TRPV3. The enzyme cutting sites by BsiWI were made by the primer pair (5′-[…]-3′ and 5′-[…]-3′) for TRPV1 and the primer pair (5′-[…]-3′ and 5′-[…]-3′) for TRPV3. […]
# Mouse DRG neurons were acutely dissociated and maintained in a short-term primary culture according to procedures as previous descripted. […] Fluorescence images of DRG neurons and HEK-293T cells were acquired with an Olympus IX81 microscope with Hamamatsu C4742 charge-coupled device camera controlled by the MetaFluor Software (Molecular Devices). Fluo-4 was excited by a mercury vapour light source with a 500/20-nm excitation filter, while fluorescence emission was detected with a 535/30-nm emission filter. Fluorescence images were required with automated routines written in MetaMorph software (Molecular Devices) and analysed with Igor Pro (Wavemetrics).
# [3] = tested on: mTRPV1 point mutants at D602, Y632, T634 and L461; test: Whole-cell current of mTRPV1 point mutants; format: cell-based, mouse; settings: glycine or alanine mutation, both at 10 μM, +80 mV
# Source text: TRPV1 and TRPV3 chimeras used in this study were generated by the overlapping extension method[54] and confirmed by DNA sequencing, as described previously. Briefly, to generate V1/3S, the primer pairs (5′-[…]-3′and 5′-[…]-3′) were used. To generate other TRPV1/TRPV3 chimeras, the enzyme cutting sites by MluI were made by the primer pair (5′-[…]-3′ and 5′-[…]-3′) for TRPV1 and the primer pair (5′-[…]-3′ and 5′-[…]-3′) for TRPV3. The enzyme cutting sites by PvuI were made by the primer pair (5′-[…]-3′ and 5′-[…]-3′) for TRPV1 and the primer pair (5′-[…]-3′ and 5′-[…]-3′) for TRPV3. The enzyme cutting sites by BsiWI were made by the primer pair (5′-[…]-3′ and 5′-[…]-3′) for TRPV1 and the primer pair (5′-[…]-3′ and 5′-[…]-3′) for TRPV3. V1/3M were generated by enzyme cut and paste between MluI and PvuI sites, while V1/3L were generated by enzyme cut and paste between MluI and BsiWI sites. V1_S1S2_1, V1_S1S2_3 and V1_S1S2_3 were generated as previously reported. […]
# As described in details in a previous report, macroscopic currents (in whole-cell, inside-out or outside-out configuration) as well as single-channel currents were recorded using a HEKA EPC10 amplifier with the PatchMaster software (HEKA). […] Statistical difference was determined using the Student’s t-test, and indicated by ** when reaching the significance level P<0.001.
# [4] = target: T1, mTRPV1 (Mus musculus, UniProt Q704Y3); test: Whole-cell patch-clamp of mTRPV1 expressed in HEK293 cells; format: cell-based; settings: SEM
# T1 construct: expressed in transfected cells; host or cells: HEK-293T
# Source text: TRPV1 and TRPV3 chimeras used in this study were generated by the overlapping extension method[54] and confirmed by DNA sequencing, as described previously. Briefly, to generate V1/3S, the primer pairs (5′-[…]-3′and 5′-[…]-3′) were used. To generate other TRPV1/TRPV3 chimeras, the enzyme cutting sites by MluI were made by the primer pair (5′-[…]-3′ and 5′-[…]-3′) for TRPV1 and the primer pair (5′-[…]-3′ and 5′-[…]-3′) for TRPV3. The enzyme cutting sites by PvuI were made by the primer pair (5′-[…]-3′ and 5′-[…]-3′) for TRPV1 and the primer pair (5′-[…]-3′ and 5′-[…]-3′) for TRPV3. The enzyme cutting sites by BsiWI were made by the primer pair (5′-[…]-3′ and 5′-[…]-3′) for TRPV1 and the primer pair (5′-[…]-3′ and 5′-[…]-3′) for TRPV3. V1/3M were generated by enzyme cut and paste between MluI and PvuI sites, while V1/3L were generated by enzyme cut and paste between MluI and BsiWI sites. V1_S1S2_1, V1_S1S2_3 and V1_S1S2_3 were generated as previously reported. All mTRPV1 point mutations were constructed using the QuickChange II XL site-directed mutagenesis kit following the manufacturer’s instruction. These point mutations were sequenced to confirm that appropriate constructs were made. HEK-293T cells were cultured and transiently transfected using Lipofectamine 2,000 (Invitrogen) as previously described.
# as §1
# [5] = tested on: Trpv1−/− knockout mice; test: Paw-licking assay in TRPV1 knockout mice; format: in vivo, mouse; settings: intraplantar, 1 μmol per paw
# Method: In vivo effects of RhTx on WT mice or Trpv1^−/− mice were examined according to protocols described previously. For the paw-licking assay, pain was induced in mice by intraplantar injection of 0.1% formalin, capsaicin (1 μmol per paw) or RhTx (1 μmol per paw). Each of the testing materials was dissolved in 100 μl saline. Control mice received the same volume of saline. Injected mice were placed individually into open polyvinyl cages (20 × 40 × 15 cm). Time spent licking the injected paw was recorded by a digital video camera during the following 40 min. For recording colonic temperature from WT or Trpv1^−/− mice, mice equipped with a copper-constantan thermocouple were individually placed in open polyvinyl cages. A data logger was connected to the thermocouple. Mice were injected intraperitoneally with 100 μl saline containing capsaicin or RhTx. The dose of capsaicin or RhTx was 10 μmol kg^−1 for these experiments. Mice in the control group received the same volume of saline.
# T1 sequence (Q704Y3 whole entry): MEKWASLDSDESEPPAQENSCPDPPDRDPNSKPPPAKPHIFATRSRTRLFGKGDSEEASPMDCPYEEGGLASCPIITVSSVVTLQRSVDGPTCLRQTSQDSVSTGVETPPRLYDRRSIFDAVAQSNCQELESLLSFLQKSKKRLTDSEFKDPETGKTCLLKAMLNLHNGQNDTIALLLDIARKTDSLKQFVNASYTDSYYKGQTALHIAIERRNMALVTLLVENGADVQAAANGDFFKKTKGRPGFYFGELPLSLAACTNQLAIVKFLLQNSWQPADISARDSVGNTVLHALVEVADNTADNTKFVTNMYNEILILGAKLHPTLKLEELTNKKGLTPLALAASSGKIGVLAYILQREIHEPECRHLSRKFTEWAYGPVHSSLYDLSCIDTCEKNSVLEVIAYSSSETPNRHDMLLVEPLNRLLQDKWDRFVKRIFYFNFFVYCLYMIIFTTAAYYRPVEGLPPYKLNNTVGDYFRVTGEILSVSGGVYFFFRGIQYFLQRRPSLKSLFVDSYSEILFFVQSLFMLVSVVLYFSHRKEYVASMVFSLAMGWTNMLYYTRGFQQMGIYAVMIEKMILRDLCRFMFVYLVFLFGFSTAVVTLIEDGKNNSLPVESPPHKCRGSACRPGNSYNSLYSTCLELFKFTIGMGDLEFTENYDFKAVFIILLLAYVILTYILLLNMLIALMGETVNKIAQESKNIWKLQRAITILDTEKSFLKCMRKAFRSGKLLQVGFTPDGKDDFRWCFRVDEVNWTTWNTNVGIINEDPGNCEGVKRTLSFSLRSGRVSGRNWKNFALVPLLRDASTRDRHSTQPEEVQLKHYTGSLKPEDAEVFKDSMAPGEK
compound,measurement,setting,value
"COc1cc(CNC(=O)CCCC/C=C/C(C)C)ccc1O [capsaicin, reference compound]",effect of lowering the experimental temperature on agonist-induced channel activation,[1],could not prevent
same,agonist-induced intracellular calcium increase in point mutants versus WT channel,[2],sparing
same,agonist-induced current in point mutants versus WT channel,[3],sparing
same,EC50,[4],214 ± 20.6 nM
same,Hill slope,[4],1.36±0.18
same,pain behaviour (paw licking) in knockout mice,[5],ineffective

# Source: publication PMC4589873, “A pain-inducing centipede toxin targets the heat activation machinery of nociceptor TRPV1” (Nature Communications, 2015)
